The source of these data is patent EP0666841B1, “SUCCINOYLAMINO HYDROXYETHYLAMINO SULFAMIC ACID DERIVATIVES USEFUL AS RETROVIRAL PROTEASE INHIBITORS” (G.D. SEARLE & CO., priority 1992, dated 1994).

The target of this test is T1, HIV protease (Human immunodeficiency virus type 1 group M subtype B, UniProt P04585).
T1 construct: HIV protease is diluted in the assay buffer to a final enzyme concentration of 12.3 nanomolar, based on a molecular weight of 10,780
Nature of the test: HIV protease enzyme assay (fluorescence, peptide substrate). The test is classed as biochemical. To be noted: read-out: IC50 or % inhibition. From the text:
The compounds of the present invention are effective HIV protease inhibitors. Utilizing an enzyme assay as described below, the compounds set forth in the examples herein disclosed inhibited the HIV enzyme. The preferred compounds of the present invention and their calculated IC50 (inhibiting concentration 50%, i.e., the concentration at which the inhibitor compound reduces enzyme activity by 50%) values are shown in Table 17. The enzyme method is described below. The substrate is 2-Ile-Nle-Phe(p-NO2)-Gln-ArgNH2. The positive control is MVT-101 (Miller, M. et al, Science, 246, 1149 (1989)] The assay conditions are as follows: Assay buffer: 20 mM sodium phosphate, pH 6.4 20% glycerol 1 mM EDTA 1 mM DTT 0.1% CHAPS
The above described substrate is dissolved in DMSO, then diluted 10 fold in assay buffer. Final substrate concentration in the assay is 80 µM.
HIV protease is diluted in the assay buffer to a final enzyme concentration of 12.3 nanomolar, based on a molecular weight of 10,780.
The final concentration of DMSO is 14% and the final concentration of glycerol is 18%. The test compound is dissolved in DMSO and diluted in DMSO to 10x the test concentration; 10µl of the enzyme preparation is added, the materials mixed and then the mixture is incubated at ambient temperature for 15 minutes. The enzyme reaction is initiated by the addition of 40µl of substrate. The increase in fluorescence is monitored at 4 time points (0, 8, 16 and 24 minutes) at ambient temperature. Each assay is carried out in duplicate wells.

Take `CNS(=O)(=O)N(CC(C)C)C[C@@H](O)[C@H](Cc1ccccc1)NC(=O)OCc1ccccc1` [A]: the inhibition at 0.1 µM worked out at 29%. On to `CN(C)S(=O)(=O)N(Cc1ccc(F)cc1)C[C@@H](O)[C@H](Cc1ccccc1)NC(=O)OCc1ccccc1` [B], for which the inhibition at 10 µM is 55%. Turning to `CC(C)CN(C[C@@H](O)[C@H](Cc1ccccc1)NC(=O)OCc1ccccc1)S(=O)(=O)NC(C)C` [C], the inhibition at 1 µM was 59%.

For `CC(C)CN(C[C@@H](O)[C@H](Cc1ccccc1)NC(=O)OCc1ccccc1)S(=O)(=O)N1CCN(C)CC1` [D], the inhibition at 0.1 µM is 29%. On to `CC(C)CN(C[C@@H](O)[C@H](Cc1ccccc1)NC(=O)OCc1ccccc1)S(=O)(=O)Nc1ccccc1` [E], for which, under “IC50 values printed in nM”, the IC50 is 70 nM. As to `CC(C)CN(C[C@@H](O)[C@H](Cc1ccccc1)NC(=O)OCc1ccccc1)S(=O)(=O)N1CCCC1` [F], the inhibition at 0.1 µM is 22%. As to `CC(C)(C)NS(=O)(=O)N(Cc1ccccc1)C[C@@H](O)[C@H](Cc1ccccc1)NC(=O)OCc1ccccc1` [H], the inhibition at 10 µM came to 48%. Take `CC(C)(C)NS(=O)(=O)N(C[C@@H](O)[C@H](Cc1ccccc1)NC(=O)OCc1ccccc1)C1CCCCC1` [K]: the inhibition at 1 µM stood at 60%.
